According to patent US20260263340A1, “Cosmetic Products and Cleaning Products Stabilized Against Microbial Attack” (Thor GmbH, priority 2023, published 2026):
Structures can show the parent of a compound that is named as a salt.

Assays:
[1] = test system: bacteria mixture 3; experiment: Repeated-inoculation microbiological stress test of body lotion, bacteria mixture 3; assay type: cell-based, Nesterenkonia spec.; parameters: key to Bacterial growth after inoculation: 0: No growth; Minimal growth, 1 to 10 colonies visible over the entire streak; 2: Light growth, maximum 100 colonies; Moderate growth, maximum 300 to 400 colonies; Uniform growth, >400 colonies, single colonies still clearly recognizable; 5: Heavy growth, too many colonies to count, but no growth over the entire streak; 6: Full growth, barely any single colonies still apparent, growth over the entire streak; details: for Bacterial growth after inoculation: Body lotion, 6 d
From the text: (§1) The tested cleaning composition was an all-purpose cleaner without preservatives and having a pH of 7.7, the skin lotion was a body lotion without preservatives and having a pH of 7.1, and the shampoo was a hair shampoo without preservatives and having a pH of 6.9.
(§2) The cleaning composition was admixed with particular concentrations of guanidine carbonate and guanidine hydrochloride and homogenized. The body lotion and the hair shampoo were each admixed and homogenized with guanidine hydrochloride and with octane-1,2-diol alone or in combination.
(§3) The batches of the products thus obtained were inoculated repeatedly at particular intervals with bacteria mixtures or yeast mixtures that are used as standard for microbiological stress tests of industrial products or cosmetic products (bacteria mixture 1 and 2, yeast mixture 1 and 2).
(§4) The inoculum was added to the respective sample in each inoculation at 2% (v/w) as a fresh cell suspension in a physiological saline solution (0.9% NaCl). The cell count of the inoculum added was 10^8-10^9/ml for the bacteria mixtures, 10^7-10^8/ml for the yeast mixtures, consisting in equal parts of the individual bacteria strains or yeast strains.
The cell suspension of the bacteria mixtures was produced by growing the individual bacteria at 30° C. for 24 h in liquid culture on a shaker. The medium used to grow the bacteria from bacteria mixtures 1 and 2 was Müller-Hinton liquid medium. The bacteria from bacteria mixture 3 were grown in Müller-Hinton liquid medium that had been adjusted to pH 9.5 to 9.7 with an alkaline buffer solution beforehand. After growing, the individual liquid cultures were centrifuged, and the cells were resuspended in physiological saline solution. In order to adjust the mixtures to a total cell count of 10^8 to 10^9/ml, the individual bacteria suspensions, if necessary, were diluted accordingly before being combined with saline solution. The cell count of the inoculum suspensions was determined in each case by chamber counting.
(§5) In the examples, the samples were inoculated three times at weekly intervals with the respective cell suspensions (2% v/w) and the evolution of the bacteria or yeasts was followed by a semiquantitative evaluation method. After each inoculation, microbial infestation in the samples was evaluated in each case after incubation at 30° C. for 6 to 7 days. For this purpose, an aliquot was taken from each sample after homogenization using a sterile plastic inoculation loop (10 μl) and streaked evenly on agar plates (bacteria mixture 1 and 2 on tryptic soy agar, bacteria mixture 3 on DSMZ 31 alkaline nutrient agar, Sabouraud glucose-agar in the case of yeasts). The streaked agar plates were then incubated at 30° C. for 48 hours (bacteria mixture 1 and 2) or 5 to 7 days (bacteria mixture 3), or at 25° C. for 72 hours (yeast mixtures). After incubation, the bacteria colonies or yeast colonies that have grown on the agar plates were visually evaluated and quantified according to the following scheme:
Inoculation 2% (w/v) with bacteria mixture 3, cell count 10^8/ml

[2] = test system: yeast mixture 2; experiment: Repeated-inoculation microbiological stress test of shampoo, yeast mixture 2; assay type: cell-based, Candida albicans, Candida parapsilosis; parameters: key to Yeast growth after inoculation: 0: No growth; Minimal growth, 1 to 10 colonies visible over the entire streak; 2: Light growth, maximum 100 colonies; Moderate growth, maximum 300 to 400 colonies; Uniform growth, >400 colonies, single colonies still clearly recognizable; 5: Heavy growth, too many colonies to count, but no growth over the entire streak; 6: Full growth, barely any single colonies still apparent, growth over the entire streak; details: for Yeast growth after inoculation: Shampoo, 6 d
From the text: as §1, §2, §3, §4
(§6) The cell suspension of the yeast mixtures was produced by growing the yeast strains on Sabouraud glucose-agar at 25° C. for 48 hours and washing down the cell lawn in each case with physiological saline solution (0.9% NaCl). Further steps for establishment of a cell count of the inoculum suspension of 10^7/ml to 10^8/ml were effected analogously to the production of the bacteria suspensions.
as §5
(§7) Inoculation 2% (w/v) with yeast mixture 2, cell count 10^7/ml

[3] = test system: yeast mixture 2; experiment: Repeated-inoculation microbiological stress test of body lotion, yeast mixture 2; assay type: cell-based, Candida albicans, Candida parapsilosis; parameters: key to Yeast growth after inoculation: 0: No growth; Minimal growth, 1 to 10 colonies visible over the entire streak; 2: Light growth, maximum 100 colonies; Moderate growth, maximum 300 to 400 colonies; Uniform growth, >400 colonies, single colonies still clearly recognizable; 5: Heavy growth, too many colonies to count, but no growth over the entire streak; 6: Full growth, barely any single colonies still apparent, growth over the entire streak; details: for Yeast growth after inoculation: Body lotion, 6 d
From the text: as §1, §2, §3, §4, §6, §5, §7

[4] = test system: yeast mixture 1; experiment: Repeated-inoculation microbiological stress test of all-purpose cleaner, yeast mixture 1; assay type: cell-based; parameters: key to Yeast growth after inoculation: 0: No growth; Minimal growth, 1 to 10 colonies visible over the entire streak; 2: Light growth, maximum 100 colonies; Moderate growth, maximum 300 to 400 colonies; Uniform growth, >400 colonies, single colonies still clearly recognizable; 5: Heavy growth, too many colonies to count, but no growth over the entire streak; 6: Full growth, barely any single colonies still apparent, growth over the entire streak; details: for Yeast growth after inoculation: All-purpose cleaner, 6 d
From the text: as §1, §2, §3, §4, §6, §5
Inoculation 2% (w/v) with yeast mixture 1, cell count 10^8/ml

[5] = +2500 ppm octanediol pH 7.0, 1. inoculation
[6] = +2500 ppm octanediol pH 7.0, 2. inoculation
[7] = +2500 ppm octanediol pH 7.0, 3. inoculation
[8] = +5000 ppm octanediol pH 7.0, 1. inoculation
[9] = +5000 ppm octanediol pH 7.0, 2. inoculation
[10] = +5000 ppm octanediol pH 7.0, 3. inoculation
[11] = +10000 ppm guanidine hydrochloride (6180 ppm guanidine) pH 6.8, 1. inoculation
[12] = +10000 ppm guanidine hydrochloride (6180 ppm guanidine) pH 6.8, 2. inoculation
[13] = +10000 ppm guanidine hydrochloride (6180 ppm guanidine) pH 6.8, 3. inoculation

CCCCCCC(O)CO (stereo not shown) [octanediol, octane-1,2-diol]
Bacterial growth after inoculation [1, 5]: 4 (Uniform growth, >400 colonies, single colonies still clearly recognizable)
Bacterial growth after inoculation [1, 6]: 6
Bacterial growth after inoculation [1, 7]: 6
Bacterial growth after inoculation [1, 8]: 1 (Minimal growth, 1 to 10 colonies visible over the entire streak)
Bacterial growth after inoculation [1, 9]: 3 (Moderate growth, maximum 300 to 400 colonies)
Bacterial growth after inoculation [1, 10]: 3 (Moderate growth, maximum 300 to 400 colonies)
Yeast growth after inoculation ([2]; +2500 ppm octanediol pH 6.9, 1. inoculation): 4 (Uniform growth, >400 colonies, single colonies still clearly recognizable)
Yeast growth after inoculation ([2]; +2500 ppm octanediol pH 6.9, 2. inoculation): 5
Yeast growth after inoculation ([2]; +2500 ppm octanediol pH 6.9, 3. inoculation): 6
Yeast growth after inoculation ([2]; +5000 ppm octanediol pH 6.9, 1. inoculation): 1 (Minimal growth, 1 to 10 colonies visible over the entire streak)
Yeast growth after inoculation ([2]; +5000 ppm octanediol pH 6.9, 2. inoculation): 2 (Light growth, maximum 100 colonies)
Yeast growth after inoculation ([2]; +5000 ppm octanediol pH 6.9, 3. inoculation): 2 (Light growth, maximum 100 colonies)
Yeast growth after inoculation [3, 5]: 5
Yeast growth after inoculation [3, 6]: 6
Yeast growth after inoculation [3, 7]: 6
Yeast growth after inoculation [3, 8]: 3 (Moderate growth, maximum 300 to 400 colonies)
Yeast growth after inoculation [3, 9]: 3 (Moderate growth, maximum 300 to 400 colonies)
Yeast growth after inoculation [3, 10]: 2 (Light growth, maximum 100 colonies)

N=C(N)N [guanidine hydrochloride]
Yeast growth after inoculation ([4]; +1000 ppm guanidine hydrochloride (618 ppm guanidine) pH 7.7, 1. inoculation): 5
Yeast growth after inoculation ([4]; +1000 ppm guanidine hydrochloride (618 ppm guanidine) pH 7.7, 2. inoculation): 6
Yeast growth after inoculation ([4]; +1000 ppm guanidine hydrochloride (618 ppm guanidine) pH 7.7, 3. inoculation): 6
Yeast growth after inoculation ([4]; +2500 ppm guanidine hydrochloride (1545 ppm guanidine) pH 7.7, 1. inoculation): 1 (Minimal growth, 1 to 10 colonies visible over the entire streak)
Yeast growth after inoculation ([4]; +2500 ppm guanidine hydrochloride (1545 ppm guanidine) pH 7.7, 2. inoculation): 1 (Minimal growth, 1 to 10 colonies visible over the entire streak)
Yeast growth after inoculation ([4]; +2500 ppm guanidine hydrochloride (1545 ppm guanidine) pH 7.7, 3. inoculation): 1 (Minimal growth, 1 to 10 colonies visible over the entire streak)
Yeast growth after inoculation ([4]; +5000 ppm guanidine hydrochloride (3090 ppm guanidine) pH 7.6, 1. inoculation): 0
Yeast growth after inoculation ([4]; +5000 ppm guanidine hydrochloride (3090 ppm guanidine) pH 7.6, 2. inoculation): 0
Yeast growth after inoculation ([4]; +5000 ppm guanidine hydrochloride (3090 ppm guanidine) pH 7.6, 3. inoculation): 1 (Minimal growth, 1 to 10 colonies visible over the entire streak)
stability of the all-purpose cleaner to microbial infestation by yeasts ([4]; addition of 1516 ppm of guanidine in the form of guanidine hydrochloride at pH 7.7): distinct improvement in stability
Bacterial growth after inoculation [1, 11]: 6
Bacterial growth after inoculation [1, 12]: 6
Bacterial growth after inoculation [1, 13]: 6
stability of the body lotion to microbial infestation by bacteria ([1]; addition of 3035 ppm of guanidine in the form of guanidine hydrochloride at pH 7.0): distinct improvement in stability
Yeast growth after inoculation ([2]; +10000 ppm guanidine hydrochloride (6070 ppm guanidine) pH 6.8, 1. inoculation): 4 (Uniform growth, >400 colonies, single colonies still clearly recognizable)
Yeast growth after inoculation ([2]; +10000 ppm guanidine hydrochloride (6070 ppm guanidine) pH 6.8, 2. inoculation): 6
Yeast growth after inoculation ([2]; +10000 ppm guanidine hydrochloride (6070 ppm guanidine) pH 6.8, 3. inoculation): 6
stability of the shampoo to microbial infestation by yeasts ([2]; table 6, addition of 4553 ppm of guanidine in the form of guanidine hydrochloride at pH 6.9): distinct improvement in stability
Yeast growth after inoculation [3, 11]: 5
Yeast growth after inoculation [3, 12]: 6
Yeast growth after inoculation [3, 13]: 6
stability of the body lotion to microbial infestation by yeasts ([3]; addition of 4553 ppm of guanidine in the form of guanidine hydrochloride at pH 6.9): distinct improvement in stability
